# Literature values in patent publication US20080293820A1, “METHODS FOR IMPROVING PHYSICAL FUNCTION IN FIBROMYALGIA” (Cypress Bioscience, Inc., priority 2007, published 2008).
# Counter-ions that a name gives are not always drawn.
# System: fibromyalgia patients
# Details: cited from earlier work
# [1] = both milnacipran treatment groups (QD and BID), escalation to maximum 200 mg/day
smiles,measurement,setting,value
"CCN(CC)C(=O)C1(c2ccccc2)CC1CN (racemic) [milnacipran, Z-2-aminomethyl-1-phenyl-N,N-diethylcyclopropanecarboxamide hydrochloride]",effect on the symptom of pain in FMS (in words),100 mg BID,effective acute (short-term) therapy
same,PGIC: completers who reported an improvement in their overall status,[1],over 70%
same,PGIC: completers who reported worsening,[1],10%
